Results as given in PubChem BioAssay (NCI).
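Grown in 96-well plates, cells were treated for 48 hours with each compound at five concentrations. Insufficient inhibition: endpoint recorded as highest concentration tested. Abbreviation: GI50, concentration required for 50% inhibition of growth. TGI is the concentration that stops growth completely.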

Assays:
Assay in all cases: NCI tumour cell line growth inhibition, 48 h
KM12 colon = test system: KM12 colon
HOP-62 NSCLC = test system: HOP-62 NSCLC
SF-295 CNS = test system: SF-295 CNS
OVCAR-3 ovarian = test system: OVCAR-3 ovarian
IGROV1 ovarian = test system: IGROV1 ovarian
TK-10 renal = test system: TK-10 renal
HOP-92 NSCLC = test system: HOP-92 NSCLC
NCI/ADR-RES ovarian = test system: NCI/ADR-RES ovarian

| SMILES | TGI (KM12 colon) [µM] | TGI (HOP-62 NSCLC) [µM] | TGI (SF-295 CNS) [µM] | TGI (OVCAR-3 ovarian) [µM] | TGI (IGROV1 ovarian) [µM] | TGI (TK-10 renal) [µM] | TGI (HOP-92 NSCLC) [µM] | TGI (NCI/ADR-RES ovarian) [µM] | GI50 (HOP-62 NSCLC) [µM] | GI50 (SF-295 CNS) [µM] | GI50 (HOP-92 NSCLC) [µM] | GI50 (KM12 colon) [µM] | GI50 (OVCAR-3 ovarian) [µM] | GI50 (IGROV1 ovarian) [µM] | GI50 (TK-10 renal) [µM] |
| --- | --- | --- | --- | --- | --- | --- | --- | --- | --- | --- | --- | --- | --- | --- | --- |
| O=C(Cc1nc2ccccc2s1)Nc1ccc(Cl)cc1 | > 100 | > 100 | > 100 | > 100 | > 100 | > 100 |  |  |  |  |  |  |  |  |  |
| C#Cc1c(C)c(/C=C/C(C)=C/C=C/C(C)=C/C(=O)OC)n(C)c1C | > 100 | > 100 | > 100 | > 100 | > 100 | > 100 | > 100 |  |  |  |  |  |  |  |  |
| COc1ccc2c(c1O)C(=O)C(CCC(=O)O)CC2 (configuration not stated) |  | > 100 | > 100 | > 100 | > 100 | > 100 | > 100 |  |  |  |  |  |  |  |  |
| O=C(NCCO)c1cc2c(cn1)[nH]c1ccccc12 | > 100 | 40.1 | > 100 | > 100 | > 100 | > 100 | > 100 |  |  |  |  |  |  |  |  |
| CCC(=O)C1(c2ccccc2)CCN(C)CC1 | > 100 | > 100 | > 100 |  | > 100 | > 100 | > 100 | > 100 |  |  |  |  |  |  |  |
| O=C(O)C1=C(C(=O)Nc2ccccc2)C2C=CC1C2 (configuration not stated) | > 100 | > 100 | > 100 | > 100 | > 100 | > 100 | > 100 |  |  |  |  |  |  |  |  |
| C=CCCOC(=O)CO[N+](=O)[O-] | > 100 | > 100 | > 100 | > 100 | > 100 | > 100 |  |  |  |  |  |  |  |  |  |
| CCSC(SCC)c1cc2c(cc1Br)OCO2 | > 100 | > 100 | 72.1 | 57.3 | > 100 | > 100 | 55.3 |  |  |  |  |  |  |  |  |
| COc1ccc(/C=C/C(=O)C(C)(C)CN2CCCCC2)cc1 | 55.7 | > 100 | 97.5 | 34.5 | 65.8 | 53.4 |  |  |  |  |  |  |  |  |  |
| CC(/C=C/C(=O)c1sc(-n2nc(-c3ccccc3)cc2-c2ccccc2)nc1C)=C\c1ccccc1 | > 100 | > 100 | > 100 | > 100 | > 100 |  |  |  | > 100 | > 100 |  |  |  |  |  |
| Cc1nnc(N=Nc2c(O)[nH]c3c(Cl)cc(Cl)cc23)n1N | > 100 | > 100 | > 100 | > 100 | > 100 | > 100 | > 100 |  |  |  |  |  |  |  |  |
| CC(=O)[O-].CC(=O)[O-].O=C(N/N=C/c1cc(Cl)cc(Cl)c1O)c1ccncc1.[Ni+2] | > 100 | > 100 | 67.2 | 80.8 | > 100 | > 100 | 76.9 |  |  |  | 17.1 |  |  |  |  |
| Nc1nc(Cl)cc(NCCCCCNc2cc(Cl)nc(N)n2)n1 | > 100 | > 100 | > 100 | > 100 | > 100 | > 100 | > 100 |  |  |  |  |  |  |  |  |
| COCc1c(CO)cnc(C)c1OC1OC(CO)C(O)C(O)C1O (configuration not stated) | > 100 | > 100 | > 100 | > 100 | > 100 |  |  |  |  |  |  |  |  |  |  |
| c1ccc(N=c2snc3scc(-c4ccccc4)n23)cc1 | > 100 | > 100 | > 100 | 62.2 | > 100 | > 100 | 76.3 |  |  |  |  |  |  |  |  |
| CCOC(=O)Cc1nc2ccccc2s1 | > 10 | 52 | 32.2 | > 10 | > 100 | 55 |  |  |  |  |  |  |  |  |  |
| CC(C)N(C(=O)C1(C)CC1)C(C)C | > 100 | > 100 | > 100 | > 100 | > 100 |  | > 100 |  |  |  |  |  |  |  |  |
| CC1=C(C(=O)Nc2ccccc2)C(c2ccc([N+](=O)[O-])cc2)C(C(=O)Nc2ccccc2)=C(C)N1 | 34.8 | > 100 | > 100 | > 100 | > 100 | > 100 | 60.9 |  |  |  |  |  |  |  |  |
| COc1cc(Br)c(CC2(C#N)c3ccccc3C3C(N2C(=O)c2ccccc2)C3(Cl)Cl)cc1OC (configuration not stated) | > 65.5 |  |  | > 65.5 | > 65.5 | > 65.5 | > 65.5 |  |  |  |  |  |  |  |  |
| C[N+](C)(C)CC(=O)N/N=C(\CCC(=O)NCCc1ccccc1)CC(=O)c1ccccc1 | > 100 | > 100 | > 100 | > 100 | > 100 | > 100 | > 100 |  |  |  |  |  |  |  |  |
| O=C1OC(c2ccccc2)=N/C1=C\c1ccc2ccccc2c1 | > 100 |  |  | > 100 | > 100 | > 100 | > 100 |  |  |  |  |  |  |  |  |
| N.N.N.N.O=NN1CCCCCC1(P(=O)([O-])[O-])P(=O)([O-])[O-].[Pt+4].[Pt+4] | > 100 | > 100 | > 100 | > 100 | > 100 | > 100 | > 100 |  | > 100 | > 100 | > 100 | > 100 | > 100 | > 100 | > 100 |
| COC(=O)NC1(NC(=O)OC)NC(=O)c2cc(OC)c(OC)cc2N1 | > 100 | > 100 | > 100 | 67.6 | > 100 | > 100 |  | > 100 |  |  |  |  |  |  |  |
